Where a name gives a salt, the structure may show the parent alone.

T1 sequence (P56817 46-501): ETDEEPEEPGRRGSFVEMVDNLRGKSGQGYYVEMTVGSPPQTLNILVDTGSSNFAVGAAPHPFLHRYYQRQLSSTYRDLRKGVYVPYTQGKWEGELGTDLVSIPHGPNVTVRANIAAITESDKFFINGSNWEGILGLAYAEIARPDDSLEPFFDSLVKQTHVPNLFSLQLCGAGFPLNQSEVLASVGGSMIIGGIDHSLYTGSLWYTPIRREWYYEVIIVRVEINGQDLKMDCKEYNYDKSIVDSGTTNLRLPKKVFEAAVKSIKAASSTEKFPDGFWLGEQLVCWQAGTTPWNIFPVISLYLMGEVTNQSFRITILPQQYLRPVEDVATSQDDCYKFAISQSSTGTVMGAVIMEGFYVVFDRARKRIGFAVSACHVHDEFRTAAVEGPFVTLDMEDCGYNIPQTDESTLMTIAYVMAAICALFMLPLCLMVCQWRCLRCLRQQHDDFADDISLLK

One assay addresses T1, BACE1 enzyme (Homo sapiens, UniProt P56817).
T1 construct: The HEK293-9B.A1 cell line, which overexpresses the BACE1 enzyme, was derived from HEK293 cells; endogenous in cells; washed 48,000 x g pellet of the cell homogenate
Kind of assay: Radioligand displacement assay with a radiolabeled BACE inhibitor on HEK293-9B.A1 cell homogenate.
Details: not given
Format: binding. As for the experimental part: Radioligand displacement assays with a radiolabeled BACE inhibitor (WO 2004 013098, compound 3, where the methoxy group is substituted for C(^3H)3) were carried out using standard methods (Keen, M. (1999) in Receptor Binding Techniques (Walker, J. M. ed) p. 106 Humana Press, Totowa, N.J.). The HEK293-9B.A1 cell line, which overexpresses the BACE1 enzyme, was derived from HEK293 cells (Simmons, N. L. (1990) A cultured human renal epitheloid cell line responsive to vasoactive intestinal peptide. Exp. Physiol. 75:309-19.) by RAGE™ (Harrington, J. J. et al. (2001) Creation of genome-wide protein expression libraries using random activation of gene expression. Nat. Biotechnol. 19:440-5; U.S. Pat. Nos. 6,410,266 and 6,361,972). T225 flask cultures of HEK293-9B.A1 were grown to 80% confluency in DMEM supplemented with 2 mM L-glutamine, 10 μg/ml penicillin, 10 μg/ml streptomycin, 3 μg/ml puromycin, 100 nM methotrexate, and 10% fetal bovine serum (Invitrogen, Carlsbad, Calif.), harvested, and resuspended at 2×10^8 cells per 10 ml of lysis buffer consisting of 50 mM HEPES pH 7.0 containing a protease inhibitor cocktail of AEBSF 104 μM, aprotinin 80 nM, leupeptin 2 μM, bestatin 4 μM, pepstatin A 1.5 μM, and E-64 1.4 μM (0.1% of protease inhibitor cocktail P8340, Sigma-Aldrich, St. Louis, Mo.) at 4° C. The resuspended cells were homogenized using a Polytron (Brinkman, Westbury, N.Y.) at setting 6 for 10 sec., then centrifuged at 48,000×g for 10 min. The resulting pellet was washed by repeating the resuspension, homogenization and centrifugation steps. The final pellet was resuspended in buffer at 4° C. to yield a total protein concentration of 5 mg/ml, then aliquots were frozen in liquid nitrogen for further storage at −70° C. Immediately before carrying out a binding assay, an aliquot of cell homogenate was thawed and diluted to a concentration of 100 μg/ml in assay buffer consisting of 50 mM HEPES pH 5.0 and 0.1% CHAPSO. Assays were initiated in polypropylene 96-well plates (Costar, Cambridge, Mass.) by the addition of 200 μl of cell homogenate to 50 μl of assay buffer containing 1 nM radioligand (WO 2004 013098, compound 3, where the methoxy group is substituted for C(^3H)3: 80 Ci/mMol) and various concentrations of unlabelled compounds, and incubated for 1.5 hr. at 25° C. Separation of bound from free radioligand was by filtration on GFF glass fiber filters (Innotech Biosystems International, Lansing, Mich.) using an Innotech cell harvester.
`C=CCO/N=C(/C)c1cc(C(=O)N[C@@H](Cc2cc(F)cc(F)c2)[C@H](O)CNCc2cccc(OC)c2)cc(C(=O)N[C@H](C)c2ccccc2)c1` [Example 46, N^1-((2S,3R)-4-(3-methoxybenzylamino)-1-(3,5-difluorophenyl)-3-hydroxybutan-2-yl)-5-((Z)-1-(allyloxyimino)ethyl)-N^3-((R)-1-phenylethyl)isophthalamide TFA salt] had an IC50 below 100 nM.

Staying with this assay, now noted: displacement of 1 nM tritiated radioligand, HEK293-9B.A1 homogenate, pH 5.0, 1.5 hr at 25° C.; read-out: Activity Rating (activity based on IC50 values).
On to `CCCO/N=C(\C)c1cc(C(=O)N[C@@H](Cc2cc(F)cc(F)c2)[C@H](O)CNCc2cccc(OC)c2)cc(N(c2ccccc2)S(C)(=O)=O)c1` [Example 43, N-((2S,3R)-4-(3-methoxybenzylamino)-1-(3,5-difluorophenyl)-3-hydroxybutan-2-yl)-3-(N-phenylmethan-10-ylsulfonamido)-5-((E)-1-(propoxyimino)ethyl)benzamide], for which the IC50 was below 100 nM.

As for `COc1cccc(CNC[C@@H](O)[C@H](Cc2cc(F)cc(F)c2)NC(=O)c2cc(/C(C)=N/OCC(C)C)cc(S(C)(=O)=O)c2)c1` [Example 20, N-((2S,3R)-4-(3-methoxybenzylamino)-1-(3,5-difluorophenyl)-3-hydroxybutan-2-yl)-3-((E)-1-(isobutoxyimino)ethyl)-5-(methylsulfonyl)benzamide TFA salt], the IC50 was above 1000 nM.

As for `COc1cccc(CNC[C@@H](O)[C@H](Cc2cc(F)cc(F)c2)NC(=O)c2cc(C(C)=O)cc(N(C)S(C)(=O)=O)c2)c1` [Example 29, N-((2S,3R)-4-(3-methoxybenzylamino)-1-(3,5-difluorophenyl)-3-hydroxybutan-2-yl)-3-acetyl-5-(N-methylmethan-2-ylsulfonamido)benzamide TFA salt], the IC50 was in the range of 100 to 1000 nM. On the same count and under the same terms, the result for `CCCN(CCC)C(=O)c1cc(C(=O)N[C@@H](Cc2cc(F)cc(F)c2)[C@H](O)CNCc2cccc(OC)c2)cc(C(C)O)c1` (stereo partly drawn) [Example 2, N^1-((2S,3R)-4-(3-methoxybenzylamino)-1-(3,5-difluorophenyl)-3-hydroxybutan-2-yl)-5-(1-hydroxyethyl)-N^3,N^3-dipropylisophthalamide TFA salt] reads below 100 nM; that for `CO/N=C(\C)c1cc(C(=O)N[C@@H](Cc2cc(F)cc(F)c2)[C@H](O)CNCc2cccc(OC)c2)cc(S(C)(=O)=O)c1` [Example 17, N-((2S,3R)-4-(3-methoxybenzylamino)-1-(3,5-difluorophenyl)-3-hydroxybutan-2-yl)-3-((E)-1-(methoxyimino)ethyl)-5-(methylsulfonyl)benzamide TFA salt], 100 to 1000 nM; that for `CCCN(C)C(=O)c1cc(C(=O)N[C@@H](Cc2cc(F)cc(F)c2)[C@H](O)CNCc2cccc(OC)c2)cc(/C(C)=N/O)c1` [Example 9, N^1-((2S,3R)-4-(3-methoxybenzylamino)-1-(3,5-difluorophenyl)-3-hydroxybutan-2-yl)-5-((E)-1-(hydroxyimino)ethyl)-N^3-methyl-N^3-propylisophthalamide hydrochloride], below 100 nM. On the same count and under the same terms, the result for `COc1cccc(CNC[C@@H](O)[C@H](Cc2cc(F)cc(F)c2)NC(=O)c2cc(C(C)O)cc(N(c3ccccc3)S(C)(=O)=O)c2)c1` (stereo partly drawn) [Example 40, N-((2S,3R)-4-(3-methoxybenzylamino)-1-(3,5-difluorophenyl)-3-hydroxybutan-2-yl)-3-(1-hydroxyethyl)-5-(N-phenylmethan-10-ylsulfonamido)benzamide] reads below 100 nM; that for `CCCN(C)C(=O)c1cc(C(=O)N[C@@H](Cc2cc(F)cc(F)c2)[C@H](O)CNCc2cccc(OC)c2)cc(/C(C)=N/OCc2ccccc2)c1` [Example 11, N^1-((2S,3R)-4-(3-methoxybenzylamino)-1-(3,5-difluorophenyl)-3-hydroxybutan-2-yl)-5-((E)-1-(benzyloxyimino)ethyl)-N^3-methyl-N^3-propylisophthalamide hydrochloride], below 100 nM. Same read-out and setting: the result for `C=CCO/N=C(\C)c1cc(C(=O)N[C@@H](Cc2cc(F)cc(F)c2)[C@H](O)CNCc2cccc(OC)c2)cc(N(c2ccccc2)S(C)(=O)=O)c1` [Example 42, N-((2S,3R)-4-(3-methoxybenzylamino)-1-(3,5-difluorophenyl)-3-hydroxybutan-2-yl)-3-((E)-1-(allyloxyimino)ethyl)-5-(N-phenylmethan-10-ylsulfonamido)benzamide] reads below 100 nM.

As for `CCCN(C)C(=O)c1cc(C(=O)N[C@@H](Cc2cc(F)cc(F)c2)[C@H](O)CNCc2cccc(OC)c2)cc(/C(C)=N/OC)c1` [Example 10, N^1-((2S,3R)-4-(3-methoxybenzylamino)-1-(3,5-difluorophenyl)-3-hydroxybutan-2-yl)-5-((E)-1-(methoxyimino)ethyl)-N^3-methyl-N^3-propylisophthalamide hydrochloride], the IC50 was below 100 nM. Still for that read-out and setting: the figure for `C=CCO/N=C(\C)c1cc(C(=O)N[C@@H](Cc2cc(F)cc(F)c2)[C@H](O)CNCc2cccc(OC)c2)cc(C(=O)N(CCC)CCC)c1` [Example 7, N^1-((2S,3R)-4-(3-methoxybenzylamino)-1-(3,5-difluorophenyl)-3-hydroxybutan-2-yl)-5-((E)-1-(allyloxyimino)ethyl)-N^3,N^3-dipropylisophthalamide TFA salt] is below 100 nM. Same read-out and setting: the figure for `COc1cccc(CNC[C@@H](O)[C@H](Cc2cc(F)cc(F)c2)NC(=O)c2cc(/C(C)=N/O)cc(N(c3ccccc3)S(C)(=O)=O)c2)c1` [Example 37, N-((2S,3R)-4-(3-methoxybenzylamino)-1-(3,5-difluorophenyl)-3-hydroxybutan-2-yl)-3-((E)-1-(hydroxyimino)ethyl)-5-(N-phenylmethan-10-ylsulfonamido)benzamide] is below 100 nM; for `COc1cccc(CNC[C@@H](O)[C@H](Cc2cc(F)cc(F)c2)NC(=O)c2cc(/C(C)=N/OCc3ccccc3)cc(N3CCCCS3(=O)=O)c2)c1` [Example 25, N-[(1S,2R)-1-(3,5-difluoro-benzyl)-2-hydroxy-3-(3-methoxy-benzylamino)-propyl]-3-(1,1-dioxo-1λ^6-[1,2]thiazinan-2-yl)-5-{1-[(E)-benzyloxyimino]-ethyl}-benzamide TFA salt] it is below 100 nM; for `COc1cccc(CNC[C@@H](O)[C@H](Cc2cc(F)cc(F)c2)NC(=O)c2cc(/C(C)=N/OCc3ccccc3)cc(N(C)S(C)(=O)=O)c2)c1` [Example 31, N-((2S,3R)-4-(3-methoxybenzylamino)-1-(3,5-difluorophenyl)-3-hydroxybutan-2-yl)-3-((E)-1-(benzyloxyimino)ethyl)-5-(N-methylmethan-2-ylsulfonamido)benzamide TFA salt] it is below 100 nM. Take `CCCO/N=C(\C)c1cc(C(=O)N[C@@H](Cc2cc(F)cc(F)c2)[C@H](O)CNCc2cccc(OC)c2)cc(C(=O)N(C)CCC)c1` [Example 14, N^1-((2S,3R)-4-(3-methoxybenzylamino)-1-(3,5-difluorophenyl)-3-hydroxybutan-2-yl)-N^3-methyl-5-((E)-1-(propoxyimino)ethyl)-N^3-propylisophthalamide]: the IC50 is below 100 nM. For `C=CCO/N=C(\C)c1cc(C(=O)N[C@@H](Cc2cc(F)cc(F)c2)[C@H](O)CNCc2cccc(OC)c2)cc(N2CCCCS2(=O)=O)c1` [Example 28, N-[(1S,2R)-1-(3,5-difluoro-benzyl)-2-hydroxy-3-(3-methoxy-benzylamino)-propyl]-3-(1,1-dioxo-1λ^6-[1,2]thiazinan-2-yl)-5-{1-[(E)-allyloxyimino]-ethyl}-benzamide TFA salt], the IC50 was below 100 nM.

Take `CCCN(C)C(=O)c1cc(C(=O)N[C@@H](Cc2cc(F)cc(F)c2)[C@H](O)CNCc2cccc(OC)c2)cc(/C(C)=N/OCC(C)C)c1` [Example 12, N^1-((2S,3R)-4-(3-methoxybenzylamino)-1-(3,5-difluorophenyl)-3-hydroxybutan-2-yl)-5-((E)-1-(isobutoxyimino)ethyl)-N^3-methyl-N^3-propylisophthalamide hydrochloride]: the IC50 is below 100 nM.

With `COc1cccc(CNC[C@@H](O)[C@H](Cc2cc(F)cc(F)c2)NC(=O)c2cc(C(C)=O)cc(S(C)(=O)=O)c2)c1` [Example 16, N^1-((2S,3R)-4-(3-methoxybenzylamino)-1-(3,5-difluorophenyl)-3-hydroxybutan-2-yl)-3-acetyl-5-(methylsulfonyl)benzamide TFA salt], the IC50 fell in the range of 100 to 1000 nM.

Source of the values: US7476764B2, “Phenylcarboxyamides as beta-secretase inhibitors” (Bristol-Myers Squibb Company, priority 2005, dated 2009).
